Experimental data: US20070087974A1, “TREATMENT OR PREVENTION OF RESPIRATORY VIRAL INFECTIONS WITH IMMUNOMODULATOR COMPOUNDS” (SCICLONE PHARMACEUTICALS, INC., priority 2004, published 2007)
Read-outs that look alike come from different tables or passages of the source. Marks after values point to notes of the source that are not given here.

Test system: Influenza virus A—A/Achi/1/68 (H3N2)
Assay type: in vivo, outbred CFW female mice
[1] = 10.0 mg/kg per os for 5 days, […]

## N[C@H](CCC(=O)N[C@@H](Cc1c[nH]c2ccccc12)C(=O)O)C(=O)O [SCV-07, γ-D-glutamyl-L-tryptophan]
0.1 mg/kg per os for 5 days, […]
  # of mice survived: 0
1.0 mg/kg per os for 5 days, […]
  # of mice survived: 0
1.0 mg/kg per os for 5 days, […], p = 0.025 compared to PBS-treated group by Log Rank test
  Median survival (days): 9.0* days
[1]
  # of mice survived: 0
  Median survival: 6.0 days
mouse, in vivo
  Median survival: 7.0 days
